Series [1] relates to HepG2. Kind of series: Literature IC50 in HepG2 (Kogure et al.). Format: cell-based, human. The note with it: ratio of literature IC50 values (Kogure et al.). The procedure:
In addition, the IC50 values of 5-FU and cisplatin in the Hep3B and HepG2 cell lines were obtained from Kogure et al., Cancer Chemother. Pharmacol., 53(4):296-304 (2004). The ratios of IC50 values of sodium trans-[tetrachlorobis(1H-indazole)ruthenate(III)] in a cell line sensitive to one of the other drugs and a cell line insensitive to the same drug were calculated. The results are shown in Tables 1-5 below (“Test Drug” in the tables denotes sodium trans-[tetrachlorobis(1H-indazole)ruthenate(III)]). […] As such, sodium trans-[tetrachlorobis(1H-indazole)ruthenate(III)] is potentially effective in treating hepatocellular carcinoma resistant to such other drugs.

Series [2] concerns Hep3B. To be noted: from Kogure et al. 2004; cited from earlier work.
Series [3] relates to HepG2. To be noted: from Kogure et al. 2004; cited from earlier work.
Series [4] relates to Hep3B. Kind of series: MTT cytotoxicity assay, Hep3B cell line. It is filed as cell-based, human. The procedure:
(§1) To test the activities of sodium trans-[tetrachlorobis(1H-indazole)ruthenate(III)] (“drug”), MTT assays were performed using selected hepatocellular carcinoma cell lines. Cells were plated (2×10^3 cells in 100 μl/well) in 96-well plates and allowed to recover for 24 hours. The drug was added in another 100 μl growth medium and incubated with cultured cells for 3 hours before the cell culture medium was replaced to remove the drug. Cell death was measured 72 hours after the initial incubation by MTT assay following the manufacturer's recommendations (EZ4U, Biomedica, Vienna, Austria).
(§2) In addition, the IC50 values of 5-FU and cisplatin in the Hep3B and HepG2 cell lines were obtained from Kogure et al., Cancer Chemother. Pharmacol., 53(4):296-304 (2004). The ratios of IC50 values of sodium trans-[tetrachlorobis(1H-indazole)ruthenate(III)] in a cell line sensitive to one of the other drugs and a cell line insensitive to the same drug were calculated.
In general terms: Tetrazolium dyes change colour on reduction, which living cells bring about.

The subject of series [5] is HepG2. Kind of series: MTT cytotoxicity assay, HepG2 cell line. Format: cell-based, human. To be noted: for IC50: HepG2; for IC50 Ratio (HepG2/Hep3B): IC50 in HepG2 divided by IC50 in Hep3B. The method, then:
as §1, §2

A further series relates to HCC2. Kind of series: MTT cytotoxicity assay, HCC2 cell line. Format: cell-based, human. To be noted: for IC50: HCC2, MTT; for IC50 Ratio (HCC2/HCC3): IC50 in HCC2 divided by IC50 in HCC3. The method, then:
as §1, §2

Another series relates to HCC3. Kind of series: MTT cytotoxicity assay, HCC3 cell line. It is filed as cell-based, human. The note with it: for IC50: HCC3, MTT at 72 h; for IC50 Ratio (HCC3/B1): IC50 in HCC3 divided by IC50 in B1. The method, then:
as §1, §2

Series [6] concerns Hep3B cells. The note with it: for increase in life span: versus control group (33 days). The method, then: Separately, the activity of sodium trans-[tetrachlorobis(1H-indazole)ruthenate(III)] against Hep3B cells was evaluated in xenograft experiments using female SCID mice as compared to the standard therapy sorafenib. Sodium trans-[tetrachlorobis(1H-indazole)ruthenate(III)] was administered IV at 30 mg/kg once a week for two weeks. Sorafenib was administered P.O. at 25 mg/kg daily five times a week for two weeks.

The subject of another series is hepatocellular carcinoma. To be noted: late stage HCC patients with well preserved liver function; cited from earlier work.
In a further series the test system is B1. Kind of series: MTT cytotoxicity assay, B1 cell line. Format: cell-based, human. The method, then:
as §1, §2

Series [7] deals with Hep3B cells. Kind of series: Apoptosis induction, DAPI staining of nuclear morphology. It is filed as cell-based, human. The note with it: 24 hours of drug treatment. The procedure: To evaluate the mechanisms underlying the drug activity, apoptosis induction as well as impact on cell cycle distribution and proliferation of Hep3B cells were evaluated (FIG. 2). Specifically, the hepatoma cell line Hep3B was purchased from American Type Culture Collection (ATCC), Manassas, Va. All cells were grown in RPMI 1640 supplemented with 10% FCS. Cultures were regularly checked for Mycoplasma contamination. After 24 hours of drug treatment, cells were harvested, washed in PBS and cytospins were prepared. After fixation with a 1:1 methanol/acetone solution, slides were stained with 4′,6-diamidino-2-phenylindole (DAPI) containing antifade solution (Vector Laboratories, Inc., USA). Nuclear morphology of cells was examined using a Laica DMRXA fluorescence microscope (Laica Mikroskopie and System, Wetzlar, Germany) equipped with appropriate epifluorescence filters and a COHU charge-douples device camera. Duplicate slides were prepared for each cell type/treatment group and 300-500 cells were counted for each sample.
Treatment with sodium trans-[tetrachlorobis(1H-indazole)ruthenate(III)] led to typical morphological signs of programmed cell death like cell shrinkage, chromatin condensation and formation of apoptotic bodies. […]

Series [8] relates to colon cancer cell line HT29. To be noted: Kapitza et al. 2005; cited from earlier work.
A further series deals with HCC1.2. Kind of series: MTT cytotoxicity assay, HCC1.2 cell line. Format: cell-based, human. The note with it: 3 h drug incubation, MTT at 72 h. The method, then: as §1
Another series has as its system PARP. Kind of series: PARP cleavage by Western blot. It is filed as cell-based, human. To be noted: 24 hours of drug treatment. The method, then:
Treatment with sodium trans-[tetrachlorobis(1H-indazole)ruthenate(III)] led to typical morphological signs of programmed cell death like cell shrinkage, chromatin condensation and formation of apoptotic bodies. Apoptotic cell death induced by sodium trans-[tetrachlorobis(1H-indazole)ruthenate(III)] was further characterized by PARP cleavage examined by Western Blot Analyses. Specifically, after 24 hours of drug treatment, protein extracts were prepared and Western blot analyses performed. Rabbit Anti-PARP from Apoptosis Sampler kit (Cell Signaling Technology, Beverly, Mass.) (dilution 1:1000)[…]) was used. For loading control β-actin monoclonal mouse AC-15 (Sigma, USA, dilution: 1:1000) was used. All secondary peroxidase-labeled antibodies were purchased from Santa Cruz Biotechnology and used at working dilution of 1:10000.

Series [9] has as its system stress kinase P38 and extracellular signal-regulated kinase (ERK). Kind of series: Phosphorylation of P38 and ERK. Format: cell-based, human. To be noted: 24 hours of treatment.
The test system of series [10] is hepatocellular carcinoma cell lines. Kind of series: MTT cytotoxicity assay, mean over selected hepatocellular carcinoma cell lines. Format: cell-based, human. The note with it: mean over tested HCC cell lines, after 72 hours. The method, then:
as §1

The subject of series [11] is Hep3B cells. Kind of series: Cell cycle distribution, PI staining and FACS. It is filed as cell-based, human. The note with it: 24 hours of treatment, PI staining, FACS.
In series [12] the test system is Hep3B cells. Kind of series: DNA synthesis rate by 3H-thymidine incorporation. It is filed as cell-based, human.
Series [13] concerns colon cancer cell line SW480. The note with it: Kapitza et al. 2005; cited from earlier work.
For series [14], the system named is Hep3B cells. Kind of series: Mitochondrial membrane depolarization, JC-1 staining and FACS. Format: cell-based, human.
Setting [15] is: Hep3B xenograft, female SCID mice.

In brackets after ≈: the same amount, converted by molar mass. Like-named read-outs stand apart in the source and are kept apart here. Bounds are passed on as bounds.

One may read the IC50 as the concentration that inhibits the measured activity by half. Regarding `O=c1[nH]cc(F)c(=O)[nH]1` [5-FU], in the series with HepG2 [1], the “IC50 Ratio (HepG2/Hep3B)” value is greater than 5.2. The IC50 was 227 µg/mL (≈ 1750 µM) in the series on Hep3B [2] and 17.2 µg/mL (≈ 132 µM) with HepG2 [3].
`N.N.[Cl][Pt][Cl]` [Cisplatin, cisplatin]: in the series on HepG2 [1], the “IC50 Ratio (HepG2/Hep3B)” value is on record as greater than 5.2. Also, the IC50 is 3.75 µg/mL with Hep3B [2] and 19.4 µg/mL in the series with HepG2 [3].
Turning to `COc1cccc2c1C(=O)c1c(O)c3c(c(O)c1C2=O)C[C@@](O)(C(=O)CO)C[C@@H]3O[C@H]1C[C@H](N)[C@H](O)[C@H](C)O1` [Doxorubicin, doxorubicin, reference compound], the results for the IC50 with Hep3B [4] (Homo sapiens) and in the series with HepG2 [5] (Homo sapiens) were 0.0693 µM and greater than 0.25 µM, respectively. In addition, the “IC50 Ratio (HepG2/Hep3B)” value in the series with HepG2 [5] is greater than 3.6.
With `O=C1[O][Pt]2([NH][C@@H]3CCCC[C@H]3[NH]2)[O]C1=O` [Oxaliplatin, oxaliplatin, reference compound], the IC50 with HCC2 worked out at 4.05 µM; in the series on HCC3, 0.41 µM. In the series with HCC2, the “IC50 Ratio (HCC2/HCC3)” value is greater than 9.9.
On to `CNC(=O)c1cc(Oc2ccc(NC(=O)Nc3ccc(Cl)c(C(F)(F)F)c3)cc2)ccn1` [Sorafenib, sorafenib, reference compound], for which the mean survival in the series with Hep3B cells [6] (setting [15]) was 60 days. In addition, in the series on Hep3B cells [6] (Hep3B xenograft), the “increase in life span” value is 1.9 fold. Also, the added lifespan result in the series on hepatocellular carcinoma was “two”. Also, the figures for the IC50 with B1 (Homo sapiens) and in the series on HCC3 (Homo sapiens) were 0.8 µM and greater than 10 µM, respectively. For the same compound, in the series on HCC3, the “IC50 Ratio (HCC3/B1)” value was greater than 12.5.
`[Cl][Ru-]([Cl])([Cl])[Cl].[Na+].c1ccc2[nH]ncc2c1.c1ccc2[nH]ncc2c1` [sodium trans-[tetrachlorobis(1H-indazole)ruthenate(III)]] returned a mean survival in the series with Hep3B cells [6] (setting [15]) of 80 days. Moreover, the tumor growth result in the series with Hep3B cells [6] (Hep3B xenograft, female SCID mice, IV 30 mg/kg once a week for two weeks) was “effectively suppressed the growth of tumor”. Besides, the “increase in life span” value in the series on Hep3B cells [6] (Hep3B xenograft) was 2.4 fold. In addition, the tolerability entry in the series with Hep3B cells [6] (female SCID mice, IV 30 mg/kg once a week for two weeks) was “well tolerated”. Further, the apoptosis induction entry in the series with Hep3B cells [7] is “significant apoptosis”. In addition, the IC50 with Hep3B [4] (MTT) was 167 µM; in the series with HCC1.2, 62.9 µM; in [10], 124 µM; in the series on B1, 83.4 µM; with HepG2 [5] (MTT) it was 189 µM; in the series with HCC2, 129 µM. In the series with HCC3, this compound yielded an IC50 of 67.5 µM. The “killing of tumor cells” value in [8] and in [13] was “effective in killing tumor cells” each time. Moreover, the PARP cleavage result in the series on PARP is “PARP cleavage induced”. Also, in [9], the “phosphorylation of P38 and ERK” value is “strong phosphorylation”. Further, in the series on HepG2 [5], the “IC50 Ratio (HepG2/Hep3B)” value is 1.1. In the series with HCC2, the “IC50 Ratio (HCC2/HCC3)” value came out at 1.9. Further, the cell cycle distribution entry with Hep3B cells [11] is “increase of cells in G2/M phase”. Also, the DNA synthesis rate result in the series with Hep3B cells [12] is recorded as “significantly reduce DNA synthesis rate”. In addition, the “IC50 Ratio (HCC3/B1)” value in the series on HCC3 is on record as 0.8. Besides, the “cells with mitochondrial membrane depolarization” value with Hep3B cells [14] is “increase of cells with mitochondrial membrane depolarization”.

Source of the values: patent US20130331368A1, “METHOD OF TREATING HEPATOCELLULAR CARCINOMA” (Niiki Pharma Acquisition Corp. 2, priority 2011, published 2013).
